Publication PMC6095626, “Screening of the Pathogen Box for inhibitors with dual efficacy against Giardia lamblia and Cryptosporidium parvum” (PLoS Neglected Tropical Diseases, 2018)

How the values were obtained:
[1] = test system: C. parvum (UGA1 Nluc expressing strain in HCT-8 cells); assay: microbe, parasite or virus in culture; format: cell-based, Cryptosporidium parvum; details: for Crypto (10 uM) Mean % inhibition: initial Pathogen Box screen, single concentration 10 µM, inhibition compared to DMSO wells
Method in brief: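 HCT-8 monolayers grown 48 h to 90–100% confluence, treated with compound at 10 μM or serial dilutions, then infected with bleach-treated UGA1 Nluc C. parvum oocysts.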

[2] = test system: G. lamblia trophozoites (luciferase expressing, WBC6); assay: microbe, parasite or virus in culture; format: cell-based, Giardia lamblia; details: for Giardia (16 uM) Mean % inhibition: initial Pathogen Box screen, single concentration 16 µM, inhibition compared to DMSO wells
Method in brief: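 Luciferase-expressing WBC6 trophozoites plated at 250,000 cells/mL, compounds added 1:1, incubated anaerobically (GasPak bags) at 37 °C for 24 h; viability read by bioluminescence, with duplicate plates counted on a MOXI Z cell counter. Metronidazole control serially diluted 1:2 from 40 μM.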

Row | SMILES | Crypto (10 uM) Mean % inhibition [1] | Giardia (16 uM) Mean % inhibition [2] | also measured
1 | O=C(NC1CCN(c2ccnc3ccccc23)C1)c1cccc(C(F)(F)F)c1 (stereo not drawn) [MMV023388] | X* (Mean or standard deviation are negative but not significantly different from the control to be a growth promoter) | 86% | 
2 | CCc1nn(C)c(C(=O)NCc2ccc(Oc3ccc(C)cc3)cc2)c1Cl [MMV688934] | 88% | 72% | 
3 | Nc1nc(N)c2c3c(sc2n1)CN(Cc1ccccc1)CC3 [MMV688345] | X* (Mean or standard deviation are negative but not significantly different from the control to be a growth promoter) | 16% | 
4 | COc1ccc(C2(C(=O)Nc3ccc(Br)cc3)CCCC2)cc1 [MMV200748] | X* (Mean or standard deviation are negative but not significantly different from the control to be a growth promoter) | 29% | 
5 | COc1cc(C2=NCCN2)ccc1-c1cn(-c2cccc(C3=NCCN3)c2)nn1 [MMV688407] | X* (Mean or standard deviation are negative but not significantly different from the control to be a growth promoter) | 50% | 
6 | CC(c1cc(Cl)cc(Cl)c1)N(C)c1ncc2c(N)nc(N)nc2n1 (stereo not drawn) [MMV689437] | X* (Mean or standard deviation are negative but not significantly different from the control to be a growth promoter) | 46% | 
7 | O=C(C1CCN(c2cc(-n3cccc3)ncn2)CC1)N1CCc2ccccc2C1 [MMV687172] | 48% | X* (Mean or standard deviation are negative but not significantly different from the control to be a growth promoter) | 
8 | c1ccc(Oc2ccc(-c3cc(C4CCOCC4)[nH]n3)cc2)cc1 [MMV687762] | 68% | X* (Mean or standard deviation are negative but not significantly different from the control to be a growth promoter) | 
9 | CNCC[C@H](Oc1ccc(C(F)(F)F)cc1)c1ccccc1 [MMV001561] | X* (Mean or standard deviation are negative but not significantly different from the control to be a growth promoter) | 15% | 
10 | CC(C)n1nc(-c2cc3c(Cl)cccc3[nH]2)c2c(N)ncnc21 [MMV688417] | 85% | 77% | 
11 | COc1ccc(C2=NN(C3CCCCCC3)C(=O)C2(C)C)cc1OCCCCOc1ccc(-c2nn[nH]n2)cc1 [MMV690028] | 61% | 70% | 
12 | CC(C)c1ncc(-c2ccncc2)c(C2CCC(CNC(=O)c3cccnc3)CC2)n1 (stereo not drawn) [MMV676442] | 74% | 12% | 
13 | c1ccc(Oc2ccc(-c3cc(N4CCNCC4)[nH]n3)cc2)cc1 [MMV687706] | X* (Mean or standard deviation are negative but not significantly different from the control to be a growth promoter) | 30% | 
14 | COc1ccc(-c2cnc3ccc(N4CCCC4)nn23)cc1OC [MMV023985] | 93% | X* (Mean or standard deviation are negative but not significantly different from the control to be a growth promoter) | 
15 | CS(=O)(=O)N1CCC(CCn2nc(Cc3cccc4ccccc34)c3c(N)ncnc32)CC1 [MMV688470] | 80% | 23% | 
16 | Cc1cc(Nc2ccc(C(F)(F)F)cc2)n2ccnc2n1 [MMV011229] | X* (Mean or standard deviation are negative but not significantly different from the control to be a growth promoter) | 35% | 
17 | O=C(NC1=NCCS1)c1sc2cc(F)ccc2c1Cl [MMV676584] | 69% | 89% | 
18 | O=C(Nc1ccc(F)c(-c2nc3ncc(-c4ccccc4)cc3[nH]2)c1)N1CCCC1 [MMV688372] | 48% | 24% | 
19 | Cc1c[nH]c(CCNC(=O)c2cc(-c3ccc(Cl)cc3)cs2)n1 [MMV676350] | X* (Mean or standard deviation are negative but not significantly different from the control to be a growth promoter) | 17% | 
20 | O=C(NCCc1c[nH]c2ccccc12)c1cc2ccccc2oc1=O [MMV676539] | 22% | 7% | 
21 | Cc1cc(OCC(=O)Nc2ccc(C(C)C)cc2)n(C)c(=O)c1C#N [MMV1198433] | 52% | 10% | 
22 | NC(=O)c1cc(-c2ccsc2)ccc1OCCOc1ccccc1 [MMV687138] | X* (Mean or standard deviation are negative but not significantly different from the control to be a growth promoter) | X* (Mean or standard deviation are negative but not significantly different from the control to be a growth promoter) | 
23 | Cc1nn(C)c(C)c1NS(=O)(=O)c1c(Cl)cc(-c2ccnc(N3CCNCC3)c2)cc1Cl [MMV688180] | 66% | 21% | 

Row | SMILES | Crypto (10 uM) Mean % inhibition [1] | Giardia (16 uM) Mean % inhibition [2] | also measured
24 | CCC(NC(=O)c1ccccc1NC(=O)c1ccc(C)cc1)C(=O)OC (stereo not drawn) [MMV019551] | 23% | 5.53% | 
25 | COc1ccc(N(CCc2cccc(C)n2)C(C)=O)cc1 [MMV675995] | 26% | 26% | 
26 | N#Cc1nc(-c2ccccc2F)oc1NCCc1ccccc1 [MMV676384] | 40% | 21% | 
27 | O=C(N[C@H](Cc1ccccc1)C(=O)Nc1ccccc1N1CCOCC1)c1cccs1 [MMV688845] | 77% | 25% | 
28 | Cc1ccc2cc(C3NC(=O)c4ccccc4N3)c(Cl)nc2c1 (stereo not drawn) [MMV019807] | 79% | 24% | 
29 | COC(=O)c1cccc2oc(-c3cccc(OC)c3NC(=O)c3cc(-c4ccccc4)on3)nc12 [MMV676186] | 28% | 19% | 
30 | COc1ccccc1CNC(=O)c1cc(C2CC2)nc2c1cnn2C(C)C [MMV020517] | X* (Mean or standard deviation are negative but not significantly different from the control to be a growth promoter) | X* (Mean or standard deviation are negative but not significantly different from the control to be a growth promoter) | 
31 | CCc1ccc(S(=O)(=O)Nc2cc(CN3CCN(CCC(C)C)CC3)ccc2C)cc1 [MMV688124] | X* (Mean or standard deviation are negative but not significantly different from the control to be a growth promoter) | 72% | 
32 | CCC(C)NC(=O)c1ccc(NC(=O)C2(c3ccccc3)CCCC2)cc1 (stereo not drawn) [MMV146306] | 37% | X* (Mean or standard deviation are negative but not significantly different from the control to be a growth promoter) | 
33 | c1cc(C2=NCCN2)cc(-c2cc(-c3ccc(C4=NCCN4)cc3)no2)c1 [MMV688361] | 44% | 38% | 
34 | COc1cc(CN2CCC3(C=Cc4ccccc43)CC2)cc2c1OCO2 [MMV688941] | 56% | 62% | 
35 | Cc1ccc(NC(=O)CC2COc3ccccc3O2)cc1Cl (stereo not drawn) [MMV676431] | X* (Mean or standard deviation are negative but not significantly different from the control to be a growth promoter) | 18% | 
36 | N=C(N)c1ccc(-c2cc(-c3ccccc3)on2)cc1 [MMV688514] | 79% | 36% | 
37 | N=C(N)Nc1ccc(-c2ccc(-c3ccc(N=C(N)N)c(Cl)c3)o2)cc1Cl [MMV688271] | 86% | 53% | 
38 | COc1ccc(-c2cc(NC(=O)c3ccc(F)cc3Cl)ccc2OC)cc1 [MMV676526] | 46% | 87% | 
39 | Nc1nccc2ccc(Oc3ccncc3)cc12 [MMV026313] | X* (Mean or standard deviation are negative but not significantly different from the control to be a growth promoter) | X* (Mean or standard deviation are negative but not significantly different from the control to be a growth promoter) | 
40 | CC1=Nc2ccc(Cl)cc2C(O)(c2ccc(C)cc2)N1CCN1CCCCC1 (stereo not drawn) [MMV688279] | 43% | 65% | 
41 | CC[C@H](CO)NCCN[C@H](CC)CO [MMV687801] | 8% | X* (Mean or standard deviation are negative but not significantly different from the control to be a growth promoter) | 
42 | c1ccc(-c2nc(NC3CCCCC3)cc(C3CC3)n2)nc1 [MMV021013] | 92% | 65% | 
43 | C[C@H](C(N)=O)N1CCCC[C@@H]1c1ccc(OCc2cccc(F)c2)cc1 [MMV676270] | 6.67% | 20% | 
44 | CCc1ccc([C@@H]2C[C@H](C(F)(F)F)n3ncc(C(=O)NCc4ccc(OC)cc4)c3N2)cc1 [MMV687180] | X* (Mean or standard deviation are negative but not significantly different from the control to be a growth promoter) | 23% | 
45 | COc1ccc(OC)c(NCc2ccc3nc(N)nc(N)c3c2Cl)c1 [MMV675968] |  |  | C. parvum cell growth inhibition in the initial screen ([1]; 10 μM, 48 hours): 88%; EC50 ([1]; Nluc C. parvum in HCT-8 cells, 48 hours, read-out: C. parvum EC50): 2100 nM; G. lamblia inhibition of parasite growth in the initial screen ([2]; 16 μM, 24 hours): 90%; G. lamblia EC50 ([2]; luciferase expressing G. lamblia trophozoites, 24 hours, D-luciferin bioluminescence read-out): not potent; EC50 ([2]; luciferase expressing G. lamblia trophozoites, 24 hours, D-luciferin bioluminescence read-out, read-out: G. lamblia EC50): > 10000 nM
